Assay results reported in US12692253B2, “Antimicrobial compounds and methods” (Curza Global, LLC, priority 2019, dated 2026).

How the values were obtained:
[1] = molecular target: Rabbit Reticulocyte Lysate (eukaryotic protein synthesis); assay: Rabbit reticulocyte lysate luciferase assay (inhibition of eukaryotic protein synthesis); format: biochemical; settings: class by IC50 or % inhibition @ 1 μM, read-out: Rabbit reticulocyte IC50 (μM/% inhib.)
Procedure: Inhibition of eukaryotic protein synthesis was determined using the Rabbit Reticulocyte Lysate System, Nuclease-Treated from Promega (catalog #L-4960) with slight modifications to the manufacturer's protocol. Compounds were serial diluted in 0.5 mL microcentrifuge tubes by mixing and transferring 50 μL from the highest concentration to 50 μL of water, mixing and transferring 50 μL of this 2-fold dilution to 50 μL of water. This mixing and transferring was repeated so that there are a total of 8 tubes with serial dilutions of compound at 10× the desired screening concentration that are ultimately diluted to 1× by the addition of rabbit reticulocyte luciferase synthesis mixture. Serial dilutions of compounds were added (2.5 μL) to wells in a black round bottom 96-well plate. Water (2.5 μL) was used as a “no inhibitor” control in 4 wells/plate. No RNA control reaction mixture (2 μL; see below) was used as a control in 4 wells/plate for background luminescence. Rabbit reticulocyte luciferase synthesis mixture (22.5 μL; see below) was added to wells with compounds or water mixture and incubated at 30° C. for 90 minutes. Luciferase assay reagent (25 μL) was added with luminescence measured using a BioTek Synergy HTX plate reader. % Inhibition was determined relative to no inhibitor controls.
Rabbit Reticulocyte Luciferase Synthesis Mixture:
• 1,000 μL rabbit reticulocyte lysate • 5.7 μL Luciferase Control RNA (1 μg/μL) • 26 μL complete amino acid mixture • 395 μL water • No RNA Control • 70 μL rabbit reticulocyte lysate • 2 μL complete amino acid mixture • 28 μL water Minimum Inhibitory Concentration (MIC)

[2] = tested on: E. coli (Ec); assay: Broth microdilution minimum inhibitory concentration (MIC), CLSI; format: cell-based; settings: growth medium supplemented with sodium bicarbonate; for MIC: Escherichia coli, read-out: E. coli + bicarb MIC
Procedure: A certified BSL-2 laboratory was used for testing. Compounds were evaluated using the broth microdilution minimum inhibitory concentration (MIC) and minimum bactericidal concentration (MBC) assays defined by Clinical and Laboratory Standards Institute (CLSI) in the M26-A guideline against S. aureus (Sa), E. coli (Ec), K. pneumoniae (Kp), A. baumannn (Ab), E. faecalis (Ef) and P. aeruginosa (Pa).
MICs were determined using the Clinical Laboratory and Standards Institute (CLSI) Broth Microdilution Method with slight modification. Clinical and Laboratory Standards Institute (2012). “Methods for dilution antimicrobial susceptibility tests for bacteria that grow aerobically; approved standard, 9th ed. M07-A9 Clinical and Laboratory Standards Institute, Wayne, PA” Serial two-fold dilutions of compounds are prepared in sterile clear round-bottom 96-well plates.
To prepare microdilution trays, two-fold dilutions of antimicrobial agent are prepared in growth medium: Cation-Adjusted Mueller-Hinton Broth (CAMHB), or CAMHB supplemented with sodium bicarbonate (6.25 or 25 mM final concentration prepared from a 1.0M stock solution) or CAMHB supplemented with heat inactivated human serum (Fisher Cat. #BP2657100) 0-50% by adding 200 µL of the highest concentration to be tested (64 μg/mL, for example) in row A, mixing and transferring 100 μL from row A to 100 μL growth medium in row B, then repeating the mixing and transferring through row H of the 96-well plate, discarding the excess […] remaining. This slight modification to the CLSI protocol enables evaluation of MICs for 3 compounds per plate in triplicate, albeit with only 8 compound dilutions (CLSI protocol enables 2 compounds in triplicate with 10 dilutions). Bacterial suspensions are added to a final concentration of 5×10^4 CFU/well by adding 5 μL of a 1:10 dilution of a 0.5 McFarland suspension (1×10^8 CFU/mL) for each bacterium evaluated. Bacterial suspensions were prepared using the growth method described by CLSI. Well-isolated colonies (3-5 from an agar plate) were selected using a sterile loop and used to inoculate a tube containing 4 mL of CAMHB. The cultures are incubated at 35±2° C. until it achieves or exceeds the turbidity of the 0.5 McFarland standard, determined by measuring A600 (usually two to six hours). When growth exceeds a 0.5 McFarland standard, the turbidity is adjusted with broth to be equivalent to a 0.5 McFarland standard.

[3] = tested on: E. coli S30 extract (bacterial protein synthesis); assay: E. coli S30 extract coupled transcription-translation luciferase assay (inhibition of bacterial protein synthesis); format: biochemical; settings: class by IC50 or % inhibition @ 1 μM, read-out: S30 IC50 (μM/% inhib.)
Procedure: E. coli S30 extract: Inhibition of bacterial protein synthesis was determined using the E. coli S30 Extract System for Circular DNA (Promega catalog #L-2010) and Luciferase Assay Reagent (Promega catalog #E1500) with slight modifications to a published protocol. Fyfe, C., Sutcliffe, J. A. and Grossman, T. H. (2012) “Development and characterization of a Pseudomonas aeruginosa in vitro coupled transcription-translation assay system for evaluation of translation inhibitors” J. Microbiol. Methods 90(3), 256-261.
Compounds were serial diluted in 0.5 mL microcentrifuge tubes by mixing and transferring 50 μL from the highest concentration to 50 μL of water, mixing and transferring 50 μL of this 2-fold dilution to 50 μL of water. This mixing and transferring was repeated so that there are a total of 8 tubes with serial dilutions of compound at 10× the desired screening concentration that are ultimately diluted to 1× by the addition of S30 luciferase synthesis mixture. Serial dilutions of compounds were added (2 μL) to wells in a black round bottom 96-well plate. Water (2 μL) was used as a “no inhibitor” control in 4 wells/plate. No DNA control reaction mixture (20 μL; see below) was used as a control in 4 wells/plate for background luminescence. S30 luciferase synthesis mixture (18 μL; see below) was added to wells with compounds or water mixture and incubated at 37° C. for 1 hour. Reactions were stopped by transferring to 4° C. refrigerator for 5 minutes then 25 μL of luciferase activity mix was added. Luminescence was measured using a BioTek Synergy HTX plate reader. % Inhibition was determined relative to no inhibitor controls. • S30 luciferase synthesis mixture: • 445 μL S30 extract, circular • 712 μL S30 Premix without amino acids • 4.45 μL pBESTluc™ DNA (1 μg/μL) • 78 μL complete amino acid mixture • 267 μL water • No DNA control: • 20 μL S30 extract, circular • 32 μL S30 Premix without amino acids • 7 μL complete amino acid mixture • 21 μL water Rabbit Reticulocyte lysate

| SMILES | IC50 [1] | MIC [2] | IC50 [3] | E. coli + bicarb MIC [2] |
| --- | --- | --- | --- | --- |
| Cc1cc(-n2ccc(NC(=O)N3CCN(C(=O)C(C)(C)N)CC3)nc2=O)ccc1CN1C[C@@H]2[C@@H](N)[C@@H]2C1 [Compound 2] | ≥ 1 µM | < 8 µg/mL | < 0.5 µM |  |
| CC(C)(N)C(=O)N1CCN(C(=O)Nc2ccn(-c3cc(F)c(CN4C[C@@H]5[C@@H](N)[C@@H]5C4)c(F)c3)c(=O)n2)CC1 [Compound 8] |  | > 32 µg/mL | ≥ 1 µM |  |
| CC(C)(N)CC(=O)N1CCN(C(=O)Nc2ccn(-c3ccc(CN4C[C@@H]5[C@@H](N)[C@@H]5C4)c(C(F)(F)F)c3)c(=O)n2)CC1 [Compound 9] |  | > 32 µg/mL | ≥ 1 µM |  |
| CC(N)(C(=O)N1CCN(C(=O)Nc2ccn(-c3ccc(CN4C[C@@H]5[C@@H](N)[C@@H]5C4)cc3)c(=O)n2)CC1)C(F)(F)F (stereo partly shown) [Compound 15] |  | > 32 µg/mL | ≥ 1 µM |  |
| CC(C)(N)C(=O)N1CCN(C(=O)Nc2ccn(-c3ccc(CN4C[C@H](N)C5(CC5)C4)cc3)c(=O)n2)CC1 [Compound 16] | ≥ 1 µM | 8 to 32 µg/mL | ≥ 1 µM |  |
| C[C@](N)(CF)C(=O)N1CCN(C(=O)Nc2ccn(-c3ccc(CN4C[C@@H]5[C@@H](N)[C@@H]5C4)cc3)c(=O)n2)CC1 [Compound 18] | ≥ 1 µM | < 8 µg/mL | < 0.5 µM |  |
| CC(C)(N)C(=O)N1CCN(C(=O)Nc2ccn(-c3ccc(CN4C[C@@H](N)C5(CC5)C4)cc3)c(=O)n2)CC1 [Compound 19] | ≥ 1 µM | < 8 µg/mL | 0.5 to 1 µM |  |
| CC(C)(N)C(=O)N1CCN(C(=O)Nc2ccn(-c3ccc(CN4CCC5(CC5N)C4)cc3)c(=O)n2)CC1 (stereo not shown) [Compound 21] | ≥ 1 µM | < 8 µg/mL | < 0.5 µM |  |
| CC(C)(N)CN1CCN(C(=O)Nc2ccn(-c3ccc(CN4C[C@@H]5[C@@H](N)[C@@H]5C4)cc3)c(=O)n2)CC1 [Compound 24] | ≥ 1 µM | < 8 µg/mL | 0.5 to 1 µM |  |
| CC(C)(N)C(=O)N1CCCN(C(=O)Nc2ccn(-c3ccc(CN4C[C@@H]5[C@@H](N)[C@@H]5C4)cc3)c(=O)n2)CC1 [Compound 26] |  | < 8 µg/mL | ≥ 1 µM |  |
| CC(C)(N)C(=O)N1CCN(C(=O)Nc2ccn(-c3ccc(CN4CCC5(CC4)CC5N)cc3)c(=O)n2)CC1 (stereo not shown) [Compound 39] | ≥ 1 µM | < 8 µg/mL | < 0.5 µM |  |
| CC(C)(N)CN1CCN(C(=O)Nc2ccn(-c3ccc(CN4C[C@@H]5[C@@H](N)[C@@H]5C4)cc3)c(=O)n2)CC1=O [Compound 47] | ≥ 1 µM | 8 to 32 µg/mL | 0.5 to 1 µM |  |
| NC[C@H]1[C@@H]2CCN(C(=O)Nc3ccn(-c4ccc(CN5C[C@@H]6[C@@H](N)[C@@H]6C5)cc4)c(=O)n3)C[C@H]12 [Compound 50] | ≥ 1 µM |  | ≥ 1 µM | +++ (An MIC value (μg/mL) that is less than 8 μg/mL) |
| NC[C@H]1[C@@H]2CCN(C(=O)Nc3ccn(-c4ccc(CN5C[C@@H]6[C@@H](N)[C@@H]6C5)cc4)c(=O)n3)C[C@H]12 [Compound 51] | ≥ 1 µM |  | ≥ 1 µM | + (An MIC (μg/mL) value that is 32 μg/mL or greater) |
| N[C@@H]1[C@H]2CN(Cc3ccc(-n4ccc(NC(=O)N5CCC(C6OCCC[C@@H]6N)CC5)nc4=O)cc3)C[C@@H]12 (stereo partly shown) [Compound 52] | ≥ 1 µM | < 8 µg/mL | ≥ 1 µM |  |
| C[C@](N)(CO)C(=O)N1CCN(C(=O)Nc2ccn(-c3ccc(CN4C[C@@H]5[C@@H](CN)[C@@H]5C4)cc3)c(=O)n2)CC1 [Compound 69] | ≥ 1 µM | < 8 µg/mL | < 0.5 µM |  |
| NC[C@@H]1[C@H]2CN(Cc3ccc(-n4ccc(NC(=O)N5CCN(C(=O)C6(CN)CC6)CC5)nc4=O)cc3)C[C@@H]12 [Compound 70] |  | < 8 µg/mL | ≥ 1 µM |  |
| CC(C)(N)C(=O)N1CCN(C(=O)Nc2ccn(-c3ccc(CN4CC5CC5(CN)C4)cc3)c(=O)n2)CC1 (stereo not shown) [Compound 71] | ≥ 1 µM | < 8 µg/mL | < 0.5 µM |  |
| CC(C)(N)C(=O)N1CCN(C(=O)Nc2ccn(-c3ccc(CN4CC[C@@H]5[C@@H](CN)[C@@H]5C4)cc3)c(=O)n2)CC1 [Compound 72] | ≥ 1 µM | < 8 µg/mL | < 0.5 µM |  |
| CC(C)(N)C(=O)N1CCN(C(=O)Nc2ccn(-c3ccc(CN4C[C@H]5CNC[C@H]5C4)cc3)c(=O)n2)CC1 [Compound 76] | ≥ 1 µM | < 8 µg/mL | < 0.5 µM |  |
| CC(C)(N)C(=O)N1CCN(C(=O)Nc2ccn(-c3ccc(CN4CC[C@H]5NCC[C@H]5C4)cc3)c(=O)n2)CC1 [Compound 77] | ≥ 1 µM | < 8 µg/mL | < 0.5 µM |  |
| CC(C)(N)C(=O)N1CCN(C(=O)Nc2ccn(-c3ccc(CN4CCC5(CCNCC5)CC4)cc3)c(=O)n2)CC1 [Compound 82] | ≥ 1 µM | < 8 µg/mL | < 0.5 µM |  |
| CC(C)(N)C(=O)N1CCN(C(=O)Nc2ccn(-c3ccc(CCN4C[C@@H]5[C@@H](N)[C@@H]5C4)cc3)c(=O)n2)CC1 [Compound 84] |  | > 32 µg/mL | ≥ 1 µM |  |
| C[C@](N)(CO)C(=O)N1CCN(C(=O)Nc2ccn(-c3ccc(CCN4C[C@@H]5[C@@H](N)[C@@H]5C4)cc3)c(=O)n2)CC1 [Compound 85] |  | > 32 µg/mL | ≥ 1 µM |  |
| COc1cc(-n2ccc(NC(=O)N3CCN(C(=O)C(C)(C)N)CC3)nc2=O)ccc1CCN1C[C@@H]2[C@H](N)[C@@H]2C1 [Compound 104] | ≥ 1 µM |  | ≥ 1 µM |  |
| CC(C)(N)C(=O)N1CCN(C(=O)Nc2ccn(-c3ccc(C(C)(C)CN4C[C@@H]5[C@@H](CN)[C@@H]5C4)cc3)c(=O)n2)CC1 [Compound 118] | ≥ 1 µM |  | ≥ 1 µM |  |
| CC(C)(N)C(=O)N1CCN(C(=O)Nc2ccn(-c3ccc(C(C)(C)CN4CC5CC5(CN)C4)cc3)c(=O)n2)CC1 (stereo not shown) [Compound 119] | ≥ 1 µM |  | ≥ 1 µM |  |
| CC(C)(N)C(=O)N1CCN(C(=O)Nc2ccn(-c3ccc(CCN4C[C@H]5CNC[C@H]5C4)cc3)c(=O)n2)CC1 [Compound 159] | ≥ 1 µM |  | ≥ 1 µM |  |
